We go through 46 molecules from BindingDB's records for doi:10.1021/acs.jmedchem.9b01567 (Peking Union Medical College, 2020).

Test [1] is described as follows: Agonist activity at STING in human THP1 cells assessed as stimulation of IRF3 pathway measured after 20 hrs by luciferase reporter gene assay. In general terms: A reporter such as luciferase makes a cellular process visible.
For test [2], the target named is T1, Interferon regulatory factor 3 (Homo sapiens, UniProt Q14653).
T1 sequence (Q14653 whole entry): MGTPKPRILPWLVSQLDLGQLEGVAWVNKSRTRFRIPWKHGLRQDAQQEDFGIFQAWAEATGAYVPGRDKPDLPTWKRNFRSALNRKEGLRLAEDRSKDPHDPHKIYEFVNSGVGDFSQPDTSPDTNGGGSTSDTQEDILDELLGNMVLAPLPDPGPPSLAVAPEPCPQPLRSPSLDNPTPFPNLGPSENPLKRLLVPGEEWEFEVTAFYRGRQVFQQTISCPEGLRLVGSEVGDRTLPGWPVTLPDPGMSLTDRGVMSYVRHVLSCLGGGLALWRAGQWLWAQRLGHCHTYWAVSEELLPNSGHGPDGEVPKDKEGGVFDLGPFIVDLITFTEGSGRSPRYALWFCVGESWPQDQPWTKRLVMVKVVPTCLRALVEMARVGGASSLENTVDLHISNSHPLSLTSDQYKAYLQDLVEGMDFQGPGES
Kind of test: Induction of IRF3 pathway in STING knockout human THP1 cells measured after 20 hrs by luciferase reporter gene assay.

What is called EC50 is the concentration at which the effect is half-maximal. Turning to `CCCn1c(NC(=O)CCc2ccccc2)nc2cc(C(N)=O)cc(OC)c21`, the EC50 in test [1] and in test [2] was over 100 µM each time.
Regarding `CCn1nc(C)cc1C(=O)Nc1nc2cc(C(N)=O)cc(OC)c2n1CCCNC(=O)CCC(=O)O`, the EC50 in test [1] and in test [2] was over 100 µM throughout.
In test [2], `CCn1nc(C)cc1C(=O)Nc1nc2cc(C(N)=O)cc(OC)c2n1CCCNC(=O)OC(C)(C)C` showed an EC50 of over 100 µM.
`COc1cc(C(N)=O)cc2nc(NC(=O)c3nccc4ccccc34)n(CCCNC(=O)OCc3ccccc3)c12`: the EC50 in test [1] and in test [2] was over 100 µM in each case.
`COCCCOc1cc(C(N)=O)cc2nc(NC(=O)c3ccccn3)n(CCCNC(=O)OCc3ccccc3)c12` yielded a half-maximal effective concentration (EC50) in test [2] of over 100 µM.
Regarding `NC(=O)c1cc(OCCCN2CCOCC2)c2c(c1)nc(NC(=O)c1cccnn1)n2CCCNC(=O)OCc1ccccc1`, the half-maximal effective concentration (EC50) in test [1] and in test [2] was over 100 µM in each case.
Turning to `CCCn1c(NC(=O)c2cc3ccccc3n2C)nc2cc(C(N)=O)cc(OC)c21`, the EC50 in test [1] and in test [2] was over 100 µM each time.
As to `CCCn1c(NC(=O)c2nccc3ccccc23)nc2cc(C(N)=O)cc(OC)c21`, the EC50 in test [1] and in test [2] was over 100 µM each time.
`CCCn1c(NC(=O)c2cncn2C)nc2cc(C(N)=O)cc(OC)c21`: the EC50 in test [1] and in test [2] was over 100 µM each time.
Take `NC(=O)c1cc(OCCCN2CCOCC2)c2c(c1)nc(NC(=O)c1ccccn1)n2CCCNC(=O)OCc1ccccc1`: the EC50 in test [1] and in test [2] was over 100 µM throughout.
`CCCn1c(NC(=O)c2cc(C)nn2CC)nc2cc(C(N)=O)ccc21` yielded an EC50 in test [2] of over 100 µM.
Consider `COc1cc(C(N)=O)cc2nc(NC(=O)c3ccnn3C)n(CCCNC(=O)OCc3ccccc3)c12`, for which the EC50 in test [1] and in test [2] was over 100 µM each time.
In the case of `COc1cc(C(N)=O)cc2nc(NC(=O)CCc3ccccc3)n(CCCNC(=O)OCc3ccccc3)c12`, the EC50 in test [1] and in test [2] was over 100 µM throughout.
On to `COc1cc(C(N)=O)cc2nc(NC(=O)c3cc4ccccc4n3C)n(CCCNC(=O)OCc3ccccc3)c12`, for which the EC50 in test [1] and in test [2] was over 100 µM in each case.
Regarding `CCn1nc(C)cc1C(=O)Nc1nc2cc(C(N)=O)ccc2n1CCCNC(=O)OCc1ccccc1`, the EC50 in test [1] and in test [2] was over 100 µM throughout.
For `CCn1nc(C)cc1C(=O)Nc1nc2cc(C(N)=O)cc(OC)c2n1CCCNC(=O)c1ccccc1`, the EC50 in test [1] and in test [2] was over 100 µM each time.
With `CCCn1c(NC(=O)c2ccnn2CC)nc2cc(C(N)=O)cc(OC)c21`, the EC50 in test [1] and in test [2] was over 100 µM throughout.
Take `CCCn1c(NC(=O)c2ccnn2C)nc2cc(C(N)=O)cc(OC)c21`: the EC50 in test [1] and in test [2] was over 100 µM in each case.
On to `COc1cc(C(N)=O)cc2nc(NC(=O)c3ccccn3)n(CCCCNC(=O)OC(C)(C)C)c12`, for which, in test [2], the EC50 is over 100 µM.
For the molecule `CCn1nc(C)cc1C(=O)Nc1nc2cc(C(N)=O)cc(OC)c2n1CCCNC(=O)C(C)(C)C`, the EC50 in test [1] was 27.5 µM; in test [2] it was over 100 µM.
On to `CCCn1c(NC(=O)c2ccc3ccccc3n2)nc2cc(C(N)=O)cc(OC)c21`, for which the EC50 in test [1] and in test [2] was over 100 µM each time.
In test [2], `COc1cc(C(N)=O)cc2nc(NC(=O)c3cccnn3)n(CCCNC(=O)OCc3ccccc3)c12` yielded an EC50 of over 100 µM.
On to `CCn1nc(C)cc1C(=O)Nc1nc2cc(C(=O)OC)cnc2n1CCCNC(=O)OC(C)(C)C`, for which the EC50 in test [1] and in test [2] was over 100 µM throughout.
Regarding `CCn1nc(C)cc1C(=O)Nc1nc2cccc(OC)c2n1CCCNC(=O)OCc1ccccc1`, the EC50 in test [1] and in test [2] was over 100 µM each time.
`COc1cc(C(N)=O)cc2nc(NC(=O)C3CCN(C)CC3)n(CCCNC(=O)OCc3ccccc3)c12`: the EC50 in test [1] and in test [2] was over 100 µM throughout.
In the case of `COc1cc(C(N)=O)cc2nc(NC(=O)c3ccc4ccccc4n3)n(CCCNC(=O)OCc3ccccc3)c12`, the EC50 in test [1] and in test [2] was over 100 µM throughout.
For the molecule `CCCn1c(NC(=O)c2cc(C)nn2CC)nc2cc(C(=O)OC)cc(OC)c21`, the EC50 in test [1] and in test [2] was over 100 µM throughout.
`COc1cc(C(N)=O)cc2nc(NC(=O)c3cccn3C)n(CCCNC(=O)OCc3ccccc3)c12`: the concentration giving a half-maximal response (EC50) in test [1] and in test [2] was over 100 µM throughout.
Turning to `CCCn1c(NC(=O)c2ccccn2)nc2cc(C(N)=O)cc(OC)c21`, the EC50 in test [1] and in test [2] was over 100 µM each time.
`CCn1nc(C)cc1C(=O)Nc1nc2cc(C(N)=O)cc(OC)c2n1CCCNC(=O)CCC(=O)OC`: the EC50 in test [1] and in test [2] was over 100 µM each time.
With `COc1cc(C(N)=O)cc2nc(NC(=O)C3CCCN3C)n(CCCNC(=O)OCc3ccccc3)c12` (centres undefined), the EC50 in test [1] and in test [2] was over 100 µM each time.
In the case of `CCn1nc(C)cc1C(=O)Nc1nc2cc(C(N)=O)cc(OC)c2n1CCCNC(=O)OCc1ccccc1`, the figures for the EC50 in test [1] and in test [2] were 0.872 µM and over 100 µM, respectively.
For `CCn1nc(C)cc1C(=O)Nc1nc2cc(C(N)=O)cc(OC)c2n1CCCN`, the EC50 in test [1] and in test [2] was over 100 µM each time.
On to `CCCn1c(NC(=O)c2cccnn2)nc2cc(C(N)=O)cc(OC)c21`, for which the EC50 in test [1] and in test [2] was over 100 µM throughout.
For `CCn1nc(C)cc1C(=O)Nc1nc2cc(C(=O)O)cnc2n1CCCNC(=O)OC(C)(C)C`, the EC50 in test [1] and in test [2] was over 100 µM in each case.
As to `CCn1nc(C)cc1C(=O)Nc1nc2cc(C(N)=O)cc(OC)c2n1CCCNC(=O)CCc1cccnc1`, the EC50 in test [1] was 39.5 µM; in test [2], over 100 µM.
Turning to `COCCCOc1cc(C(N)=O)cc2nc(NC(=O)c3cccnn3)n(CCCNC(=O)OCc3ccccc3)c12`, the EC50 in test [1] and in test [2] was over 100 µM in each case.
`CCn1nc(C)cc1C(=O)Nc1nc2cc(C(N)=O)cc(OCCCN3CCOCC3)c2n1CCCNC(=O)OCc1ccccc1`: the concentration for a half-maximal effect (EC50) in test [2] is over 100 µM.
In the case of `CCn1nccc1C(=O)Nc1nc2cc(C(N)=O)cc(OC)c2n1CCCNC(=O)OCc1ccccc1`, the EC50 in test [1] and in test [2] was over 100 µM in each case.
Take `CCn1nc(C)cc1C(=O)Nc1nc2cc(C(N)=O)cc(OC)c2n1CCCNC(=O)CCc1cc(OC)c(OC)c(OC)c1`: the EC50 in test [1] and in test [2] was over 100 µM in each case.
Consider `COc1cc(C(N)=O)cc2nc(NC(=O)c3ccccn3)n(CCCNC(=O)OCc3ccccc3)c12`, for which, in test [2], the EC50 is over 100 µM.
For `CCCn1c(NC(=O)c2cc(C)nn2CC)nc2cccc(OC)c21`, the EC50 in test [1] and in test [2] was over 100 µM in each case.
For `CCn1nc(C)cc1C(=O)Nc1nc2cc(C(=O)OC)cc(OC)c2n1CCCNC(=O)OCc1ccccc1`, the EC50 in test [1] was 20.7 µM; in test [2] it was 27.6 µM.
Regarding `CCn1nc(C)cc1C(=O)Nc1nc2cc(C(N)=O)cnc2n1CCCNC(=O)OC(C)(C)C`, the EC50 in test [1] and in test [2] was over 100 µM throughout.
The molecule `COc1cc(C(N)=O)cc2nc(NC(=O)c3cccnn3)n(CCCCNC(=O)OC(C)(C)C)c12` gave an EC50 in test [2] of over 100 µM.
For the molecule `COc1cc(C(N)=O)cc2nc(NC(=O)c3cncn3C)n(CCCNC(=O)OCc3ccccc3)c12`, the EC50 in test [1] and in test [2] was over 100 µM throughout.
